Results as given in patent US20230167105A1, “BCL-2 PROTEIN INHIBITORS” (Recurium IP Holdings, LLC, priority 2020, published 2023).

Key:
[1] = tested on: MOLT-4 cells; test: MOLT-4 Cell Proliferation Assay (CellTiter-Glo); assay type: cell-based; conditions: Homo sapiens, 72 h, read-out: MOLT-4 CTG IC50
In short: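 MOLT-4 cells at 50,000/well in serum-supplemented medium received a 10-point 1:3 dilution series (top 10 μM final, 0.1% DMSO) in duplicate for 72 h at 37 °C. Viability was read as CellTiter-Glo luminescence, and IC50 came from nonlinear regression.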

[2] = target: T1, Bcl-xL (Homo sapiens, UniProt Q07817); test: Protein Degradation Assay in MOLT-4 Cells (Western blot); assay type: cell-based; conditions: for BCL-xL degradation in MOLT-4 cells: 50 nM compound, 16 hours, FIGS. 7 and 8; for BCL-xL degradation in MOLT-4 cells, dose dependence: FIG. 9; for Bcl-xL degradation with proteasome inhibitor MG132: MOLT-4 cells pretreated with 1 μM MG132 for 1 hour, then 100 nM compound for 16 h, FIG. 10
T1 construct: endogenous in cells; host or cells: MOLT-4 (ATCC CRL-1582)
Experimental: MOLT-4 (ATCC, CRL-1582) (FIGS. 7,8) were incubated with vehicle or 50 nM concentrations of the indicated compounds for 16 hours. For proteasome inhibition, MOLT-4 cells (250,000 cells/well) were pretreated with 1 μM of MG132 for 1 hour before the addition of 100 nM of the indicated compounds for 16 h. After treatment, the cells were harvested in RIPA lysis buffer supplemented with 1% Phosphatase Inhibitor and Protease Inhibitor Cocktail. An equal amount of protein (10 μg/lane) from each cell extract was resolved on a 4-12% Bis-Tris gel. Proteins were transferred using iBlot 2 Transfer Stacks. The membranes were blocked with 5% nonfat milk in TBS-T buffer (50 mM Tris-HCL, pH 7.6; 150 mM NaCl; and 0.05% Tween) and probed with primary antibodies (1:1000 dilution) overnight at 4° C. After three washes with TBS-T (10 min/wash), the membranes were incubated with an appropriate peroxidase-conjugated secondary antibody (Cell Signaling Technology, USA) for 1 hour at rt. After three washes with TBS-T, the proteins of interest were detected with ECL Western Blotting Detection Reagents and captured with an Azure imaging system. The band intensities were determined using ImageJ software and normalized to loading control β-actin or GAPDH. The primary antibodies Bcl-xL (#2762), Bcl-2 (#2872s), and GAPDH (#5174) were purchased from Cell Signaling Technology.

T1 sequence (Q07817 whole entry): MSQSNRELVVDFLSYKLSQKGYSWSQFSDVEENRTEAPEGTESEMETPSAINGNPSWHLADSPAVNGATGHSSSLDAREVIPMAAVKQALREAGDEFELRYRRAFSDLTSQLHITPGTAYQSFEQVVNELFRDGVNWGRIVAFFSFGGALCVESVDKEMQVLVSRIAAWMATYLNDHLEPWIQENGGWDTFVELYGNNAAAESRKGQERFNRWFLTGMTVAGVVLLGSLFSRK

Row | SMILES | IC50 [1] [nM] | BCL-xL degradation in MOLT-4 cells [2] | BCL-xL degradation in MOLT-4 cells, dose dependence [2] | Bcl-xL degradation with proteasome inhibitor MG132 [2]
1 | Cc1ncsc1-c1ccc([C@H](C)NC(=O)[C@@H]2C[C@@H](O)CN2C(=O)[C@@H](NC(=O)CCCCCC(=O)N2CCN(CC[C@H](CSc3ccccc3)Nc3ccc(S(=O)(=O)NC(=O)c4ccc(N5CCN(CC6=C(C78CC(C(F)F)(C7)C8)CC(C)(C)CC6)CC5)cc4)cc3S(=O)(=O)C(F)(F)F)CC2)C(C)(C)C)cc1 [Example 6, (2S,4R)-1-((S)-2-(7-(4-((R)-3-((4-(N-(4-(4-((2-(3-(difluoromethyl)bicyclo[1.1.1]pentan-1-yl)-4,4-dimethylcyclohex-1-en-1-yl)methyl)piperazin-1-yl)benzoyl)sulfamoyl)-2-((trifluoromethyl)sulfonyl)phenyl)amino)-4-(phenylthio)butyl)piperazin-1-yl)-7-oxoheptanamido)-3,3-dimethylbutanoyl)-4-hydroxy-N—((S)-1-(4-(4-methylthiazol-5-yl)phenyl)ethyl)pyrrolidine-2-carboxamide] | 50 to 150 | induce BCL-xL degradation | can induce BCL-xL degradation in MOLT-4 cells in a dose dependent manner | can be inhibited by proteasome inhibitor MG132
2 | Cc1ncsc1-c1ccc([C@H](C)NC(=O)[C@@H]2C[C@@H](O)CN2C(=O)[C@@H](NC(=O)CCCCCCCC(=O)N2CCN(CC[C@H](CSc3ccccc3)Nc3ccc(S(=O)(=O)NC(=O)c4ccc(N5CCN(CC6=C(C78CC(C)(C7)C8)CC(C)(C)CC6)CC5)cc4)cc3S(=O)(=O)C(F)(F)F)CC2)C(C)(C)C)cc1 [Example 24, (2S,4R)-1-((S)-2-(9-(4-((R)-3-((4-(N-(4-(4-((4,4-dimethyl-2-(3-methylbicyclo[1.1.1]pentan-1-yl)cyclohex-1-en-1-yl)methyl)piperazin-1-yl)benzoyl)sulfamoyl)-2-((trifluoromethyl)sulfonyl)phenyl)amino)-4-(phenylthio)butyl)piperazin-1-yl)-9-oxononanamido)-3,3-dimethylbutanoyl)-4-hydroxy-N—((S)-1-(4-(4-methylthiazol-5-yl)phenyl)ethyl)pyrrolidine-2-carboxamide] | 50 to 150 | induce BCL-xL degradation | – | –
3 | Cc1ncsc1-c1ccc([C@H](C)NC(=O)[C@@H]2C[C@@H](O)CN2C(=O)[C@@H](NC(=O)CCCCCCCN(C)CC[C@H](CSc2ccccc2)Nc2ccc(S(=O)(=O)NC(=O)c3ccc(N4CCN(CC5=C(C67CC(C(F)F)(C6)C7)CC(C)(C)CC5)CC4)cc3)cc2S(=O)(=O)C(F)(F)F)C(C)(C)C)cc1 [Example 28, (2S,4R)-1-((S)-2-(8-(((R)-3-((4-(N-(4-(4-((2-(3-(difluoromethyl)bicyclo[1.1.1]pentan-1-yl)-4,4-dimethylcyclohex-1-en-1-yl)methyl)piperazin-1-yl)benzoyl)sulfamoyl)-2-((trifluoromethyl)sulfonyl)phenyl)amino)-4-(phenylthio)butyl)(methyl)amino)octanamido)-3,3-dimethylbutanoyl)-4-hydroxy-N—((S)-1-(4-(4-methylthiazol-5-yl)phenyl)ethyl)pyrrolidine-2-carboxamide] | 50 to 150 | induce BCL-xL degradation | – | –
4 | Cc1ncsc1-c1ccc([C@H](C)NC(=O)[C@@H]2C[C@@H](O)CN2C(=O)[C@@H](NC(=O)CCCCCCN2CCN(CC[C@H](CSc3ccccc3)Nc3ccc(S(=O)(=O)NC(=O)c4ccc(N5CCN(CC6=C(C78CC(C)(C7)C8)CC(C)(C)CC6)CC5)cc4)cc3S(=O)(=O)C(F)(F)F)CC2)C(C)(C)C)cc1 [Example 25, (2S,4R)-1-((S)-2-(7-(4-((R)-3-((4-(N-(4-(4-((4,4-dimethyl-2-(3-methylbicyclo[1.1.1]pentan-1-yl)cyclohex-1-en-1-yl)methyl)piperazin-1-yl)benzoyl)sulfamoyl)-2-((trifluoromethyl)sulfonyl)phenyl)amino)-4-(phenylthio)butyl)piperazin-1-yl)heptanamido)-3,3-dimethylbutanoyl)-4-hydroxy-N—((S)-1-(4-(4-methylthiazol-5-yl)phenyl)ethyl)pyrrolidine-2-carboxamide] | 50 to 150 | induce BCL-xL degradation | – | –
5 | Cc1ncsc1-c1ccc([C@H](C)NC(=O)[C@@H]2C[C@@H](O)CN2C(=O)[C@@H](NC(=O)CCCCCC(=O)N2CCN(CC[C@H](CSc3ccccc3)Nc3ccc(S(=O)(=O)NC(=O)c4ccc(N5CCN(CC6=C(C78CC(C)(C7)C8)CC(C)(C)CC6)CC5)cc4)cc3S(=O)(=O)C(F)(F)F)CC2)C(C)(C)C)cc1 [Example 9, (2S,4R)-1-((S)-2-(7-(4-((R)-3-((4-(N-(4-(4-((4,4-dimethyl-2-(3-methylbicyclo[1.1.1]pentan-1-yl)cyclohex-1-en-1-yl)methyl)piperazin-1-yl)benzoyl)sulfamoyl)-2-((trifluoromethyl)sulfonyl)phenyl)amino)-4-(phenylthio)butyl)piperazin-1-yl)-7-oxoheptanamido)-3,3-dimethylbutanoyl)-4-hydroxy-N—((S)-1-(4-(4-methylthiazol-5-yl)phenyl)ethyl)pyrrolidine-2-carboxamide] | 50 to 150 | induce BCL-xL degradation | – | –
6 | CC1(C)CCC(CN2CCN(c3ccc(C(=O)NS(=O)(=O)c4ccc(N[C@H](CCN5CCN(CCCC#Cc6ccc7c(c6)CN(C6CCC(=O)NC6=O)C7=O)CC5)CSc5ccccc5)c(S(=O)(=O)C(F)(F)F)c4)cc3)CC2)=C(C23CC(C(F)F)(C2)C3)C1 (stereo partly shown) [Example 30] | ≤ 50 | – | can induce BCL-xL degradation in MOLT-4 cells in a dose dependent manner | can be inhibited by proteasome inhibitor MG132
7 | Cc1ncsc1-c1ccc([C@H](C)NC(=O)[C@@H]2C[C@@H](O)CN2C(=O)[C@@H](NC(=O)CCCCCC(=O)N(C)C2CCN(CC[C@H](CSc3ccccc3)Nc3ccc(S(=O)(=O)NC(=O)c4ccc(N5CCN(CC6=C(C78CC(C(F)F)(C7)C8)CC(C)(C)CC6)CC5)cc4)cc3S(=O)(=O)C(F)(F)F)CC2)C(C)(C)C)cc1 [Example 44, N1-(1-((R)-3-((4-(N-(4-(4-((2-(3-(difluoromethyl)bicyclo[1.1.1]pentan-1-yl)-4,4-dimethylcyclohex-1-en-1-yl)methyl)piperazin-1-yl)benzoyl)sulfamoyl)-2-((trifluoromethyl)sulfonyl)phenyl)amino)-4-(phenylthio)butyl)piperidin-4-yl)-N7-((S)-1-((2S,4R)-4-hydroxy-2-(((S)-1-(4-(4-methylthiazol-5-yl)phenyl)ethyl)carbamoyl)pyrrolidin-1-yl)-3,3-dimethyl-1-oxobutan-2-yl)-N1-methylheptanediamide] | 50 to 150 | induce BCL-xL degradation | – | –
8 | Cc1ncsc1-c1ccc([C@H](C)NC(=O)[C@@H]2C[C@@H](O)CN2C(=O)[C@@H](NC(=O)CCCCC(=O)N(C)C2CCN(CC[C@H](CSc3ccccc3)Nc3ccc(S(=O)(=O)NC(=O)c4ccc(N5CCN(CC6=C(C78CC(C(F)F)(C7)C8)CC(C)(C)CC6)CC5)cc4)cc3S(=O)(=O)C(F)(F)F)CC2)C(C)(C)C)cc1 [Example 43, N1-(1-((R)-3-((4-(N-(4-(4-((2-(3-(difluoromethyl)bicyclo[1.1.1]pentan-1-yl)-4,4-dimethylcyclohex-1-en-1-yl)methyl)piperazin-1-yl)benzoyl)sulfamoyl)-2-((trifluoromethyl)sulfonyl)phenyl)amino)-4-(phenylthio)butyl)piperidin-4-yl)-N6-((S)-1-((2S,4R)-4-hydroxy-2-(((S)-1-(4-(4-methylthiazol-5-yl)phenyl)ethyl)carbamoyl)pyrrolidin-1-yl)-3,3-dimethyl-1-oxobutan-2-yl)-N1-methyladipamide] | 50 to 150 | induce BCL-xL degradation | – | –
